Source: patent EP3929178B1, “CRYSTAL FORM OF VALNEMULIN HYDROCHLORIDE HYDRATE, PREPARATION METHOD THEREFOR, AND PHARMACEUTICAL COMPOSITION CONTAINING CRYSTAL FORM” (Hubei Longxiang Pharmaceutical Co., Ltd., priority 2019, dated 2020)
Structures can show the parent of a compound that is named as a salt. Where two headings read alike, the source gives them in different places. Values belong to the compound of their own block, whether it stands above or below them.

How the values were obtained:
[1] = Influencing factor (stability) experiments on crystal forms under temperature and humidity; assay type: physicochemical; settings: for content before placement: before placement (baseline of the stability study)
Protocol: Conditions for purity detection by High Performance Liquid Chromatography (HPLC): octadecylsilane-bonded silica gel was used as filler (150 mm×4.6 mm, 3 µm); mobile phase A was phosphate buffer (pH 2.5); mobile phase B was phosphate buffer (pH 2.5)-acetonitrile (25:75); the flow rate was 1.5 ml per minute; the column temperature was 50 °C; and the detection wavelength was 200 nm. Linear gradient elution was performed according to the following table.
Table 1 Comparative study on stability of valnemulin hydrochloride hydrate, amorphous substance and the comparative crystal form

[2] = Hygroscopicity experiments; assay type: physicochemical
Text: (§1) Table 1 Comparative study on stability of valnemulin hydrochloride hydrate, amorphous substance and the comparative crystal form The hydrate crystal and the amorphous substance and the crystal form of patent CN104876841B were compared in terms of bulk density, solubility, ect, as shown in the following table. Table 2 Physicochemical properties comparison of the valnemulin hydrochloride hydrate, the amorphous substance and the Comparative Example

Bulk density comparison = assay type: physicochemical
Text: as §1, with “The” for “Table 1 Comparative study on stability of valnemulin hydrochloride hydrate, amorphous substance and the comparative crystal form The”

[3] = Loss on granulation of aqueous solutions of amorphous product; assay type: physicochemical; settings: granulated at 75 °C
Text: For solid drugs, different solid forms will have an important impact on physical and chemical properties such as stability, solubility, dissolution rate, bulk density and fluidity, resulting in different efficacy and bioavailability during use. Therefore, for solid pharmaceutical products, the development of different solid forms is more conducive to choosing a suitable crystal form according to the characteristics of the pharmaceutical preparation. For valnemulin hydrochloride products, compared with crystalline products, the amorphous products have problems such as poor stability, easy hygroscopicity, poor appearance, poor fluidity, and difficult storage. At the same time, aqueous solutions of amorphous valnemulin hydrochloride products are unstable during preparation process. Experiments have shown that 11.6% loss is caused when granulated at 75 °C. Therefore, there is an urgent need to develop a stable valnemulin hydrochloride crystal product to meet market demand for veterinary drugs. […] There are very few reports on the crystal form of valnemulin hydrochloride and preparation method thereof.

[4] = reported for CN108892629A; cited from earlier work
[5] = 25 °C, 90% relative humidity, placed for 30 days, listed as The crystal form of valnemulin hydrochloride hydrate (Example 1), hydrochloride hydrate
[6] = 40 °C, 75% relative humidity, placed for 30 days
[7] = 40 °C, 75% relative humidity, placed for 30 days, listed as The crystal form of valnemulin hydrochloride hydrate (Example 1), hydrochloride hydrate
[8] = 60 °C, 75% relative humidity, placed for 30 days
[9] = 60 °C, 75% relative humidity, placed for 30 days, listed as The crystal form of valnemulin hydrochloride hydrate (Example 1), hydrochloride hydrate
[10] = 60 °C, placed in normal humidity for 30 days, listed as The crystal form of valnemulin hydrochloride hydrate (Example 1), hydrochloride hydrate
[11] = compared with the original amorphous product
[12] = 25 °C, 90% relative humidity, placed for 30 days, hydrochloride
[13] = 40 °C, 75% relative humidity, placed for 30 days, hydrochloride
[14] = 60 °C, 75% relative humidity, placed for 30 days, hydrochloride
[15] = 60 °C, placed in normal humidity for 30 days, hydrochloride

- Appearance change [1, 5]: White solid
- Content after placement (%) [1, 5]: 99.23%
- Crystal form change [1, 5]: No change
- Crystal form change [1, 6]: No change
- Appearance change [1, 7]: White solid
- Content after placement (%) [1, 7]: 99.20%
- Crystal form change [1, 8]: No change
- Appearance change [1, 9]: White solid
- Content after placement (%) [1, 9]: 98.78%
- Appearance change [1, 10]: White solid
- Content after placement (%) [1, 10]: 98.47%
- Crystal form change [1, 10]: No
- content before placement ([1]; hydrochloride hydrate): 99.25%
- stability [1, 11]: enhanced stability
- stability ([1]; summary in words of Table 1): stable
- With or without hygroscopicity [2, 5]: Without hygroscopic ity
- With or without hygroscopicity [2, 7]: Without hygroscopic ity
- With or without hygroscopicity [2, 9]: Without hygroscopic ity
- With or without hygroscopicity [2, 10]: Without
- hygroscopicity ([2]; Table 2, listed as The crystal form of valnemulin hydrochloride hydrate (Example 1), hydrochloride hydrate): 0%
- hygroscopicity [2, 11]: no hygroscopicity
- Bulk density (Bulk density comparison; [11]): large bulk density
- Bulk density (Bulk density comparison; listed as The crystal form of valnemulin hydrochloride hydrate (Example 1), hydrochloride hydrate): 0.596 g/mL
SMILES: C=C[C@]1(C)C[C@@H](OC(=O)CSC(C)(C)CNC(=O)[C@H](N)C(C)C)[C@]2(C)[C@H](C)CC[C@]3(CCC(=O)[C@H]32)[C@@H](C)[C@@H]1O [Example 1, valnemulin hydrochloride hydrate]

- Appearance change [1, 12]: Yellow transparent viscous solid
- Content after placement (%) [1, 12]: 94.56%
- Appearance change [1, 13]: Yellow transparent viscous solid
- Content after placement (%) [1, 13]: 90.82%
- Appearance change [1, 14]: Yellow
- Content after placement (%) [1, 14]: 86.12%
- Appearance change [1, 15]: Yellow solid
- Content after placement (%) [1, 15]: 89.18%
- content before placement ([1]; listed as valnemulin hydrochloride amorphous substance, hydrochloride): 97.50%
- With or without hygroscopicity [2, 12]: Severe hygroscopic ity
- With or without hygroscopicity [2, 13]: Severe hygroscopic ity
- With or without hygroscopicity [2, 14]: Severe hygroscopic ity
- With or without hygroscopicity [2, 15]: Hygroscopi city
- hygroscopicity ([2]; Table 2, hydrochloride): 8.86%
- hygroscopicity ([2]; summary in words of Table 1, hydrochloride): absorbed moisture severely
- Bulk density (Bulk density comparison; hydrochloride): 0.338 g/mL
- loss when granulated [3]: 11.6%
SMILES: C=C[C@]1(C)C[C@@H](OC(=O)CSC(C)(C)CNC(=O)[C@H](N)C(C)C)[C@]2(C)[C@H](C)CC[C@]3(CCC(=O)[C@H]32)[C@@H](C)[C@@H]1O [The amorphous substance of valnemulin hydrochloride]

- Appearance change [1, 12]: White solid
- Content after placement (%) [1, 12]: 99.21%
- Crystal form change [1, 12]: Slight change
- Crystal form change [1, 6]: No change
- Appearance change [1, 13]: White solid
- Content after placement (%) [1, 13]: 99.18%
- Crystal form change [1, 8]: No change
- Appearance change [1, 14]: Light yellow solid
- Content after placement (%) [1, 14]: 98.69%
- Appearance change [1, 15]: Light yellow solid
- Content after placement (%) [1, 15]: 98.39%
- Crystal form change [1, 15]: No change
- With or without hygroscopicity [2, 12]: Slightly
- With or without hygroscopicity [2, 13]: Slightly
- With or without hygroscopicity [2, 14]: Slightly
- With or without hygroscopicity [2, 15]: Slightly
- hygroscopicity ([2]; Table 2, hydrochloride): 1.015%
- hygroscopicity ([2]; summary in words of Table 1, listed as The crystal form of patent CN104876841B, hydrochloride): slightly hygroscopic
- Bulk density (Bulk density comparison; hydrochloride): 0.636 g/mL
SMILES: C=C[C@]1(C)C[C@@H](OC(=O)CSC(C)(C)CNC(=O)[C@H](N)C(C)C)[C@]2(C)[C@H](C)CC[C@]3(CCC(=O)[C@H]32)[C@@H](C)[C@@H]1O [The crystal form of Comparative Example, valnemulin hydrochloride]

SMILES: C=C[C@]1(C)C[C@@H](OC(=O)CSC(C)(C)CNC(=O)[C@H](N)C(C)C)[C@]2(C)[C@H](C)CC[C@]3(CCC(=O)[C@H]32)[C@@H](C)[C@@H]1O [solvent-free compound, valnemulin hydrochloride]
- Bulk density [4]: 0.305 g/mL
